Experimental data reported in patent US20230143612A1 (Arbutus Biopharma Corporation, priority 2020, published 2023).

biological target: PD-L1 His protein / PD-1 Fc protein (Homo sapiens, UniProt Q9NZQ7); experiment: HTRF Assay (PD-1/PD-L1 interaction); format: binding; details: PD-L1 His 6 nM, PD-1 Fc 6 nM
Summary of the method: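 HTRF: PD-L1 His (6 nM final), compound (3-fold dilutions, 20 μM to 0.001 μM final) and PD-1 Fc (6 nM final) preincubated 15 min at room temperature. Anti-human IgG-XL665 and anti-6HIS Tb cryptate (mixed at 6.7 nM and 0.35 nM) then added for 1 h at room temperature before reading.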

Chain of PD-L1 His protein / PD-1 Fc protein (Q9NZQ7 19-238 limits assumed): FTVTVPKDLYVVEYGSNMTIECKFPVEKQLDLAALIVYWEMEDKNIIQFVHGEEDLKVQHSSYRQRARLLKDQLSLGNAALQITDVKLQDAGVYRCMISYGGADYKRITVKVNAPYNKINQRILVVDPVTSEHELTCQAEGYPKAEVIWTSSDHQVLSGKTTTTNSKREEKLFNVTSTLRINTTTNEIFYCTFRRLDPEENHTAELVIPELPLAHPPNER

Structure (SMILES)	IC50
COc1nc(-c2cccc(-c3cccc(-c4ccn5c(=O)c(CN[C@H]6C[C@@](C)(O)C6)c(C)nc5c4)c3Cl)c2Cl)ccc1CN[C@H]1C[C@@](C)(O)C1 [Example 230, 8-(2,2′-Dichloro-3′-(5-((((1s,3s)-3-hydroxy-3-methylcyclobutyl)amino)methyl)-6-methoxypyridin-2-yl)-[1,1′-biphenyl]-3-yl)-3-((((1s,3s)-3-hydroxy-3-methylcyclobutyl)amino)methyl)-2-methyl-4H-pyrido[1,2-a]pyrimidin-4-one]	98 nM
COc1nc(-c2cccc(-c3cccc(-c4cnc5cc(CNC[C@@H]6CCC(=O)N6)ccc5c4)c3Cl)c2Cl)ccc1CNC[C@@H]1CCC(=O)N1 [Example 370, (5S)-5-[[[3-[2-Chloro-3-[2-chloro-3-[6-methoxy-5-[[[(2S)-5-oxopyrrolidin-2-yl]methylamino]methyl]-2-pyridyl]phenyl]phenyl]-7-quinolyl]methylamino]methyl]pyrrolidin-2-one]	580 nM
COc1nc(-c2cccc(-c3cccc(-c4ccn5c(=O)c(CNC[C@@H]6CCC(=O)N6)cnc5c4)c3Cl)c2Cl)ccc1CN1CC(C)(O)C1 [Example 157, (S)-8-(2,2′-Dichloro-3′-(5-((3-hydroxy-3-methylazetidin-1-yl)methyl)-6-methoxypyridin-2-yl)-[1,1′-biphenyl]-3-yl)-3-((((5-oxopyrrolidin-2-yl)methyl)amino)methyl)-4H-pyrido[1,2-a]pyrimidin-4-one]	1.6 nM
COc1nc(-c2cccc(-c3cccc(-c4ccn5c(=O)c(CNC[C@@H]6CCC(=O)N6)cnc5c4)c3C)c2Cl)ccc1CNC[C@@H]1CCC(=O)N1 [Example 32, 8-(2′-Chloro-3′-(6-methoxy-5-(((((S)-5-oxopyrrolidin-2-yl)methyl)amino)methyl)pyridin-2-yl)-2-methyl-[1,1′-biphenyl]-3-yl)-3-(((((S)-5-oxopyrrolidin-2-yl)methyl)amino)methyl)-4H-pyrido[1,2-a]pyrimidin-4-one]	2.3 nM
COc1nc(-c2cccc(-c3cccc(-c4ccc5c(n4)nc(CN[C@H]4C[C@H](O)C4)n5C)c3Cl)c2Cl)ccc1CN[C@H]1C[C@H](O)C1 [Example 313, (1r,3r)-3-(((6-(2,2′-Dichloro-3′-(2-((((1r,3r)-3-hydroxycyclobutyl)amino)methyl)-1-methyl-1H-imidazo[4,5-b]pyridin-5-yl)-[1,1′-biphenyl]-3-yl)-2-methoxypyridin-3-yl)methyl)amino)cyclobutan-1-ol]	1.9 nM
COc1nc(-c2cccc(-c3cccc(-c4ccn5c(=O)c(CNCCO)cnc5c4)c3Cl)c2Cl)ccc1CNCCO [Example 75, 8-(2,2′-Dichloro-3′-(5-(((2-hydroxyethyl)amino)methyl)-6-methoxypyridin-2-yl)-[1,1′-biphenyl]-3-yl)-3-(((2-hydroxyethyl)amino)methyl)-4H-pyrido[1,2-a]pyrimidin-4-one]	3.4 nM
COc1nc(-c2cccc(-c3cccc(-c4cc5c(=O)n(C)c(CNC67CC(O)(C6)C7)nn5c4)c3Cl)c2Cl)ccc1CNC[C@@H]1CCC(=O)N1 [Example 473, (S)-6-(2,2′-Dichloro-3′-(6-methoxy-5-((((5-oxopyrrolidin-2-yl)methyl)amino)methyl)pyridin-2-yl)-[1,1′-biphenyl]-3-yl)-2-(((3-hydroxybicyclo[1.1.1]pentan-1-yl)amino)methyl)-3-methylpyrrolo[2,1-f][1,2,4]triazin-4(3H)-one]	5.3 nM
COc1nc(-c2cccc(-c3cccc(-c4ccc5c(n4)N(C)CCC5NC[C@@H]4CCC(=O)N4)c3Cl)c2Cl)ccc1CNC[C@@H]1CCC(=O)N1 (single isomer, unassigned) [Example 52]	0.8 nM
O=C1CC[C@@H](CNCc2ccc(-c3cccc(-c4cccc(-c5ccn6c(=O)c(CNC[C@@H]7CCC(=O)N7)cnc6c5)c4Cl)c3Cl)cc2OC(F)(F)F)N1 [Example 87, 8-(2,2′-dichloro-4″-(((((S)-5-oxopyrrolidin-2-yl)methyl)amino)methyl)-3″-(trifluoromethoxy)-[1,1′:3′,1″-terphenyl]-3-yl)-3-(((((S)-5-oxopyrrolidin-2-yl)methyl)amino)methyl)-4H-pyrido[1,2-a]pyrimidin-4-one]	2.6 nM
COc1cc(-c2cccc(-c3cccc(-c4ccc(CNC[C@@H]5CCC(=O)N5)c(OC)n4)c3Cl)c2Cl)cc2c1CN(CCO)CC2 [Example 455, (S)-5-((((6-(2,2′-Dichloro-3′-(2-(2-hydroxyethyl)-8-methoxy-1,2,3,4-tetrahydroisoquinolin-6-yl)-[1,1′-biphenyl]-3-yl)-2-methoxypyridin-3-yl)methyl)amino)methyl)pyrrolidin-2-one]	12 nM
COc1nc(-c2cccc(-c3cccc(-c4cc5c(=O)n(C)c(CNC[C@@H]6CCC(=O)N6)nn5c4)c3Cl)c2Cl)ccc1CNC[C@@H]1CCC(=O)N1 [Example 331, 6-(2,2′-Dichloro-3′-(6-methoxy-5-(((((S)-5-oxopyrrolidin-2-yl)methyl)amino)methyl)pyridin-2-yl)-[1,1′-biphenyl]-3-yl)-3-methyl-2-(((((S)-5-oxopyrrolidin-2-yl)methyl)amino)methyl)pyrrolo[2,1-f][1,2,4]triazin-4(3H)-one]	310 nM
COC(=O)C1(CNCc2cnc3cc(-c4cccc(-c5cccc(-c6ccc(CNC[C@@H]7CCC(=O)N7)c(OC)n6)c5Cl)c4Cl)ccn3c2=O)COC1 [Example 358, methyl (S)-3-((((8-(2,2′-dichloro-3′-(6-methoxy-5-((((5-oxopyrrolidin-2-yl)-methyl)-amino)-methyl)-pyridin-2-yl)-[1,1′-biphenyl]-3-yl)-4-oxo-4H-pyrido[1,2-a]pyrimidin-3-yl)-methyl)-amino)-methyl)oxetane-3-carboxylate]	0.1 nM
COc1nc(-c2cccc(-c3cccc(-c4ccn5c(=O)c(CNCC(F)(F)F)cnc5c4)c3Cl)c2Cl)ccc1CNC[C@@H]1CCC(=O)N1 [Example 303, 8-[2-Chloro-3-[2-chloro-3-[6-methoxy-5-[[[(2S)-5-oxopyrrolidin-2-yl]methylamino]methyl]-2-pyridyl]phenyl]phenyl]-3-[(2,2,2-trifluoroethylamino)methyl]pyrido[1,2-a]pyrimidin-4-one]	0.4 nM
COc1nc(-c2cccc(-c3cccc(-c4ccn5c(=O)c(CN[C@@H](CO)C(=O)O)cnc5c4)c3Cl)c2Cl)ccc1CNC[C@@H]1CCC(=O)N1 [Example 151, ((8-(2,2′-Dichloro-3′-(6-methoxy-5-(((((S)-5-oxopyrrolidin-2-yl)methyl)amino)methyl)pyridin-2-yl)-[1,1′-biphenyl]-3-yl)-4-oxo-4H-pyrido[1,2-a]pyrimidin-3-yl)methyl)-L-serine]	0.3 nM
Cc1c(COc2cc(OCc3cncc(C#N)c3)c(CNCCO)cc2Cl)cccc1-c1cccc(-c2ccn3c(=O)c(CNCCO)cnc3c2)c1 [Example 4, 5-((4-Chloro-2-(((2-hydroxyethyl)amino)methyl)-5-((3′-(3-(((2-hydroxyethyl)amino)methyl)-4-oxo-4H-pyrido[1,2-a]pyrimidin-8-yl)-2-methyl-[1,1′-biphenyl]-3-yl)methoxy)phenoxy)methyl)nicotinonitrile]	2 nM
